Results on two molecules are retold here after patent US20150126368A1, “METHOD OF PROVIDING PLANT WITH STRESS RESISTANCE” (Nippon Soda Co., Ltd., priority 2012, published 2015).

Type in all cases: in vivo
Assay [1] deals with Cucumber (breed: Sagamihanjirohushinari). As to the kind of experiment: Evaluation test for relief effects of salt injury on cucumber. To be noted: 0.1% aqueous sodium chloride from 2 days, raw weight 11 days after spray. As for the experimental part: Cucumber (breed: Sagamihanjirohushinari, 2 reprications) hydroponically grown up to the two leaf stage in a greenhouse was prepared.
A water dispersible granule of 30% ascorbic acid palmitate and pyraclostrobin adjusted to 40% with N,N-dimethylformamide were diluted with tap water to a predetermined concentration, and the diluted solution was sprayed over the whole nursery plants in a sufficient amount. After air dried, they were cultivated with normal irrigation in a greenhouse. Then, the irrigation conditions were changed to 0.1% aqueous sodium chloride solution in 2 cm depth from 2 days after the spraying, and cultivated up to 11 days after the spray treatment. Then the raw weights of an aerial part and a root part were each measured. From this, injury relief percentages were computed by the following formula.
Salt injury relief percentage=((raw weight of each treatment region)−(raw weight of untreated region))/(raw weight of untreated region)×100

Assay [2] concerns Cucumber nursery plants (breed: Sagamihanjiro). As to the kind of experiment: Evaluation test for relief effects of low temperature injury on cucumber. To be noted: spray, 2 days 25° C., then 9 days 10° C. daylight/7° C. dark, vs solvent only. As for the experimental part: N,N-dimethylformamide based solutions were prepared according to the formulations shown in Tables 5 to give chemical solutions for the tests.
Cucumber nursery plants (breed: Sagamihanjiro) grown up to the 1.5 leaf stage in a greenhouse was prepared.
The above chemical solution was sprayed to the stem and leaf parts of the above cucumber nursery plants in a sufficient amount, and then air dried. They were allowed to grow at 25° C. for 2 days under conditions of 16 hours under a daylight condition and 8 hours under a dark condition. Then, they were allowed to grow for 9 days under conditions of 16 hours under a daylight condition at 10° C. and 8 hours under a dark condition at 7° C.
Disorders were evaluated by 11 levels of disorder indices from 0 (no disorders) to 10 (withering to death).
Low temperature injury relief percentages as compared with a region treated with solvent DMF only (Chemical solution 3) were computed by the following formula.
Low temperature injury relief percentage=((disorder index of region treated with solvent only)−(disorder index of each treated region))/(disorder index of region treated with solvent only)×100

Assay [3] deals with Tomato (breed: Reiryo). The assay is described as follows: Evaluation test for relief effects of strong light injury on tomato. To be noted: summer blazing sun, 4 days after spraying. Here is the method: Tomato (breed: Reiryo, 2 reprications) grown up to the two leaf stage in a greenhouse was prepared.
A water dispersible granule of 30% of ascorbyl palmitate and pyraclostrobin dissolved to 40% N,N-dimethylformamide were diluted with tap water to each of the concentrations described in Table 9, and the diluted solution was sprayed over the whole nursery plants in a sufficient amount. After air dried, they were exposed to strong light under summer blazing sun. A degree of disorder was investigated at the elapsed time of 4 days after the spraying.
For disorder, a degree of necrosis due to light effects was evaluated by 11 levels of disorder indices from 0 (no necrosis) to 10 (withering to death). From this, disorder relief percentages were computed by the following formula.
(§1) Injury relief percentage=((disorder index of untreated region)−(disorder index of each treated region))/(disorder index of untreated region)×100

For assay [4], the system named is Cucumber (breed: Sagamihanjirohushinari). As to the kind of experiment: Evaluation test for relief effects of acidity problem on cucumber. To be noted: hydroponic medium pH 4 from 2 days, leaf stage 17 days after spray. As for the experimental part:
Cucumber (breed: Sagamihanjirohushinari, 2 reprications) hydroponically grown up to the two leaf stage in a 100 ml flask was prepared.
A water dispersible granule of 30% ascorbic acid palmitate and pyraclostrobin adjusted to 40% with N,N-dimethylformamide were diluted with tap water to a predetermined concentration, and the diluted solution was sprayed over the whole nursery plants in a sufficient amount. The water culture medium was adjusted to pH 4 with 1 N hydrochloric acid at the elapsed time of 2 days after the spray treatment, and the above cucumber was continuously allowed to grow hydroponically. Leaf stage of the cucumber was investigated 17 days after the spray treatment. From this, disorder relief percentages were computed by the following formula.
Acidity problem relief percentage=((leaf stage of each treatment region)−(leaf stage of untreated region))/(leaf stage of untreated region)×100

For assay [5], the system named is Eggplant (breed: Senryo 2 gou). As to the kind of experiment: Evaluation test for relief effects of low temperature injury on eggplant. The note with it: 13° C. daylight/8° C. dark, 15 days after spray. As for the experimental part: Eggplant (breed: Senryo 2 gou, 3 reprications) grown up to the 4 to 6 leaf stage in a greenhouse was prepared.
A water dispersible granule of 30% ascorbyl palmitate and pyraclostrobin dissolved to 40% with N,N-dimethylformamide were diluted with tap water to a concentration described in Table 6, and the diluted solution was sprayed over the whole nursery plants in a sufficient amount. After air dried, they were allowed to grow for 1 day under conditions of 16 hours under a daylight condition at 18° C. and 8 hours under a dark condition at 13° C., and then allowed to grow under conditions of 16 hours under a daylight condition at 13° C. and 8 hours under a dark condition at 8° C. A degree of disorder was investigated at the elapsed time of 15 days after the spray treatment.
Disorders were evaluated by 4 levels of disorder indices of 0 (no color change), 1 (discolored up to ¼ of the whole), 2 (discolored up to ½ of the whole), 3 (discolored at ½ or more of the whole) with reference to the area of a discolored portion in an expanded leaf after treatment.
as §1

In assay [6] the test system is Tomato (breed: Reiyo). As to the kind of experiment: Evaluation test for relief effects of low temperature injury on tomato. To be noted: one night outside at average 0.5° C. Here is the method: Tomato (breed: Reiyo, 4 reprications) grown up to the 3.5 leaf stage in a greenhouse was prepared.
A water dispersible granule of 30% ascorbyl palmitate and pyraclostrobin dissolved to 40% with N,N-dimethylformamide were diluted with tap water to a concentration described in Table 7, and the diluted solution was sprayed over the whole nursery plants in a sufficient amount. After air dried, they were transferred to the outside of the greenhouse at an average temperature of 0.5° C. during night to investigate a degree of low temperature injury on the next morning.
Disorders were evaluated by 5 levels of disorder indices of 0 (no disorder) to 4 (complete withering). From this, disorder relief percentages were computed by the following formula.
Low temperature injury relief percentage=(disorder index of untreated region)−(disorder index of each treatment region)/(disorder index of untreated region)×100

Assay [7] has as its system Cucumber (breed: Sagamihanjirohushinari). As to the kind of experiment: Evaluation test for relief effects of submergence disorder on cucumber. To be noted: flood from 2 days, raw weight 11 days after spray. Here is the method:
Cucumber (breed: Sagamihanjirohushinari, 2 reprications) grown up to the two leaf stage in a greenhouse was prepared.
A water dispersible granule of 30% ascorbyl palmitate and pyraclostrobin adjusted to 40% with N,N-dimethylformamide were diluted with tap water to a predetermined concentration, and the diluted solution was sprayed in a sufficient amount. They were subjected to flood conditions up to immediately below the cotyledon from 2 days after the spray treatment, and the raw weights of an above ground part and a root part of cucumber were each measured at the elapsed time of 11 days after the spray treatment. From this, injury relief percentages were computed by the following formula.
Flood injury relief percentage=((raw weight of each treatment region)−(raw weight of untreated region))/(raw weight of untreated region)×100

The mark [8] stands for this setting: ascorbyl palmitate 1000 ppm spray.

Structures are written as SMILES.

Regarding `COC(=O)N(OC)c1ccccc1COc1ccn(-c2ccc(Cl)cc2)n1` [Pyraclostrobin, reference compound], in assay [1] (Pyraclostrobin 50 ppm spray), the “relief percents of salt injury in aerial part(%)” value stood at 45.6% and the “relief percents of salt injury in root(%)” value stood at 20.0%. In assay [2] (Pyraclostrobin 40 ppm in DMF), the “relief percents of low-temperature injury(%)” value stood at 19%. The “relief percents of strong light injury (%)” value in assay [3] (Pyraclostrobin 50 ppm spray) is 40%. Moreover, in assay [4] (Pyraclostrobin 50 ppm spray), the “relief percents of acidity problem(%)” value is on record as 15.6%. The “relief percents of low-temperature injury(%)” value in assay [5] (Pyraclostrobin 50 ppm spray) amounted to 13.0%. Besides, the “relief percents of low-temperature injury(%)” value in assay [6] (Pyraclostrobin 50 ppm spray) was determined as 25%. In assay [7] (Pyraclostrobin 50 ppm spray), the “relief percents of flood injury in aerial part(%)” value was found to be 61.7% and the “relief percents of flood injury in root(%)” value is 39.0%.

As to `CCCCCCCCCCCCCCCC(=O)OC[C@H](O)[C@H]1OC(=O)C(O)=C1O` [ascorbyl palmitate], in assay [1] (setting [8]), the “relief percents of salt injury in aerial part(%)” value was found to be 8.8%. Besides, the “relief percents of salt injury in root(%)” value in assay [1] (setting [8]) was 16.0%. In addition, the entries for the “relief percents of low-temperature injury(%)” value in assay [2] (ascorbyl palmitate 800 ppm in DMF), in assay [5] (setting [8]) and in assay [6] (ascorbyl palmitate 500 ppm spray) were 25%, 13.0% and 100%, respectively. Also, the “relief percents of strong light injury (%)” value in assay [3] (setting [8]) was found to be 50%. Further, the “relief percents of acidity problem(%)” value in assay [4] (setting [8]) came to 15.6%. Besides, the “relief percents of flood injury in aerial part(%)” value in assay [7] (setting [8]) amounted to 31.9%. Also, the “relief percents of flood injury in root(%)” value in assay [7] (setting [8]) is 41.5%.
